Assay results taken from patent US20220386602A1, “METHODS OF USING A COMPOSITION COMPRISING AN ANIONIC PESTICIDE AND A BUFFER” (BASF CORPORATION, priority 2019, published 2022).
Like-named read-outs stand apart in the source and are kept apart here.

System: dicamba sensitive soybean plants
Conditions: dicamba 2240 g ae/ha, AMS 917 g/ha and K2CO3 buffer 4000 g/ha where named, 0.25% v/v non-ionic surfactant (Preference), 8 glass petri plates
Excerpt: The method of a bioassay humidome study utilizes a treated substrate (e.g. glass, soil, potting mix or plants) placed in a plastic tray covered with a clear plastic humidome (overall size 25 cm wide×50 cm long×20 cm tall; source: Hummert) along with 2 dicamba sensitive soybean plants (1-2 true leaves). Individual humidomes representing different study treatments and replicates are placed in a greenhouse environment (with a typical diurnal temperature range of 25 to 40 C and 75 to 98 % RH).
After 18 to 24 hours, the sensitive soybean plants are removed from the humidomes and placed on a greenhouse bench for observation and visual response or injury assessment over a 2-3 weeks period. The level of injury to soybean plants is an indirect measurement of amount of dicamba exposure from treated substrate.

Row | Structure (SMILES) | % bioassay soybean response | % bioassay soybean response (listed as dicamba-BAPMA)
1 | CN(CCCN)CCCN.COc1c(Cl)ccc(Cl)c1C(=O)O [Dicamba-BAPMA, dicamba N,N-bis(3-aminopropyl)methylamine salt] | 9% | lower soybean response than dicamba-DGA or dicamba-DMA
2 | CNC.COc1c(Cl)ccc(Cl)c1C(=O)O [Dicamba-DMA, dicamba dimethylamine] | 45% | –
